Measurements taken from ChEMBL document CHEMBL2163241, “Human neutrophil elastase phosphonic inhibitors with improved potency of action” (J Med Chem, 2012).

Key:
[1] = Inhibition of trypsin at 25 uM assessed as Kinact/Ki ratio incubated for 15 mins by spectrofluorometry
[2] = Inhibition of chymotrypsin at 25 uM assessed as Kinact/Ki ratio incubated for 15 mins by spectrofluorometry
[3] = biological target: Pancreatic elastase (Sus scrofa) (UniProt P08419+P00772); assay: Inhibition of porcine pancreatic elastase at 25 uM assessed as Kinact/Ki ratio incubated for 15 mins by spectrofluorometry; type: protein assay
[4] = biological target: T1, Neutrophil elastase (Homo sapiens) (UniProt P08246); assay: Inhibition of human leukocyte elastase at 25 uM assessed as Kinact/Ki ratio incubated for 15 mins by spectrofluorometry
T1 sequence (whole entry): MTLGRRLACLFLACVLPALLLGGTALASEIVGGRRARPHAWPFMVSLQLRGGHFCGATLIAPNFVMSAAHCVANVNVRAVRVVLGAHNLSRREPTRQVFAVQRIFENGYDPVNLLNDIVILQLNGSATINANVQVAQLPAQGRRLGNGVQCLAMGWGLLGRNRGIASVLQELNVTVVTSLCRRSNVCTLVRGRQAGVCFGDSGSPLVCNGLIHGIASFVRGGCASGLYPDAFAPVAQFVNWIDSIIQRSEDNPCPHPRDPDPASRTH

With `CC(C)CC(NC(=O)[C@@H]1CCCN1C(=O)[C@@H](NC(=O)OC(C)(C)C)C(C)C)P(=O)(Oc1ccc(Cl)cc1)Oc1ccc(Cl)cc1` (mixture of isomers) as the compound, how does the Ratio [1] read?
The Ratio was < 50 M⁻¹ s⁻¹.

What about the Ratio [2] of the same compound?
The Ratio was 18100 M⁻¹ s⁻¹.

What about the Ratio [3] of the same compound?
The Ratio was 12800 M⁻¹ s⁻¹.

What about the Ratio [4] of the same compound?
Its Ratio is 3400 M⁻¹ s⁻¹.

Which Ratio [1] does the source give for `CCC(NC(=O)[C@@H]1CCCN1C(=O)[C@@H](NC(=O)OC(C)(C)C)C(C)C)P(=O)(Oc1ccc(C(C)C)cc1)Oc1ccc(C(C)C)cc1` (mixture of isomers) here?
Its Ratio is < 50 M⁻¹ s⁻¹.

And the Ratio [2]?
The Ratio was < 50 M⁻¹ s⁻¹.

And the Ratio [3]?
Its Ratio is 580 M⁻¹ s⁻¹.

What about the Ratio [4] of the same compound?
Its Ratio is < 50 M⁻¹ s⁻¹.

With `COc1ccc(C(=O)N[C@H](C(=O)N2CCC[C@H]2C(=O)N[C@H](C(C)C)P(=O)(Oc2ccc(SC)cc2)Oc2ccc(SC)cc2)C(C)C)cc1` as the compound, how does the inhibition [1] read?
Its inhibition is < 5%.

What about the Ratio [2] of the same compound?
Its Ratio is < 50 M⁻¹ s⁻¹.

What about the Ratio [3] of the same compound?
Its Ratio is < 50 M⁻¹ s⁻¹.

What about the Ratio [4] of the same compound?
Its Ratio is 4800 M⁻¹ s⁻¹.

Which results are given for `CSc1ccc(OP(=O)(Oc2ccc(SC)cc2)C(NC(=O)[C@@H]2CCCN2C(=O)CNC(=O)OCc2ccccc2)C(C)C)cc1` (mixture of isomers)?
Ratio [1]: < 50 M⁻¹ s⁻¹; Ratio [2]: 200 M⁻¹ s⁻¹; Ratio [3]: 1200 M⁻¹ s⁻¹; Ratio [4]: 39000 M⁻¹ s⁻¹

With `CCC(NC(=O)[C@@H]1CCCN1C(=O)[C@@H](NC(=O)OC(C)(C)C)C(C)C)P(=O)(Oc1ccc(OC)cc1)Oc1ccc(OC)cc1` (mixture of isomers) as the compound, how does the Ratio [1] read?
The Ratio was < 50 M⁻¹ s⁻¹.

What about the Ratio [2] of the same compound?
The Ratio was < 50 M⁻¹ s⁻¹.

And the Ratio [3]?
The Ratio was 9900 M⁻¹ s⁻¹.

What about the Ratio [4] of the same compound?
The Ratio was 11000 M⁻¹ s⁻¹.

With `CC(C)C(NC(=O)[C@@H]1CCCN1C(=O)[C@@H](NC(=O)OC(C)(C)C)C(C)C)P(=O)(Oc1ccc(Cl)cc1)Oc1ccc(Cl)cc1` (mixture of isomers) as the compound, how does the Ratio [1] read?
Its Ratio is < 50 M⁻¹ s⁻¹.

And the Ratio [2]?
The Ratio was 250 M⁻¹ s⁻¹.

What about the Ratio [3] of the same compound?
The Ratio was 5000 M⁻¹ s⁻¹.

What about the Ratio [4] of the same compound?
The Ratio was 92100 M⁻¹ s⁻¹.

Which Ratio [1] does the source give for `CSc1ccc(OP(=O)(Oc2ccc(SC)cc2)C(NC(=O)[C@@H]2CCCN2C(=O)[C@@H](C)NC(=O)OC(C)(C)C)C(C)C)cc1` (mixture of isomers) here?
The Ratio was < 50 M⁻¹ s⁻¹.

And the Ratio [2]?
The Ratio was < 50 M⁻¹ s⁻¹.

What about the Ratio [3] of the same compound?
The Ratio was 900 M⁻¹ s⁻¹.

And the Ratio [4]?
The Ratio was 39400 M⁻¹ s⁻¹.

Which Ratio [1] does the source give for `CSc1ccc(OP(=O)(Oc2ccc(SC)cc2)C(NC(=O)[C@@H]2CCCN2C(=O)CNC(=O)OC(C)(C)C)C(C)C)cc1` (mixture of isomers) here?
Its Ratio is < 50 M⁻¹ s⁻¹.

What about the Ratio [2] of the same compound?
Its Ratio is < 50 M⁻¹ s⁻¹.

And the Ratio [3]?
Its Ratio is 5100 M⁻¹ s⁻¹.

What about the Ratio [4] of the same compound?
The Ratio was 35000 M⁻¹ s⁻¹.

For `CC[C@H](C)[C@H](NC(=O)OCc1ccccc1)C(=O)N1CCC[C@H]1C(=O)NC(C(C)C)P(=O)(Oc1ccc(SC)cc1)Oc1ccc(SC)cc1` (mixture of isomers), which Ratio [1] is on record?
The Ratio was < 50 M⁻¹ s⁻¹.

And the Ratio [2]?
Its Ratio is 1600 M⁻¹ s⁻¹.

What about the Ratio [3] of the same compound?
Its Ratio is 1800 M⁻¹ s⁻¹.

What about the Ratio [4] of the same compound?
The Ratio was 145000 M⁻¹ s⁻¹.

With `CSc1ccc(OP(=O)(Oc2ccc(SC)cc2)C(NC(=O)[C@@H]2CCCN2C(=O)[C@@H](NC(=O)OCc2ccccc2)C(C)C)C(C)C)cc1` (mixture of isomers) as the compound, how does the Ratio [1] read?
Its Ratio is < 50 M⁻¹ s⁻¹.

What about the Ratio [2] of the same compound?
The Ratio was 4400 M⁻¹ s⁻¹.

What about the Ratio [3] of the same compound?
The Ratio was 6200 M⁻¹ s⁻¹.

And the Ratio [4]?
The Ratio was 231000 M⁻¹ s⁻¹.

Which Ratio [1] does the source give for `CSc1ccc(OP(=O)(Oc2ccc(SC)cc2)C(NC(=O)[C@@H]2CCCN2C(=O)[C@H](C)NC(=O)OCc2ccccc2)C(C)C)cc1` (mixture of isomers) here?
The Ratio was < 50 M⁻¹ s⁻¹.

What about the Ratio [2] of the same compound?
Its Ratio is 1500 M⁻¹ s⁻¹.

What about the Ratio [3] of the same compound?
The Ratio was 12000 M⁻¹ s⁻¹.

What about the Ratio [4] of the same compound?
Its Ratio is 144000 M⁻¹ s⁻¹.

With `COc1ccc(OP(=O)(Oc2ccc(OC)cc2)C(CC(C)C)NC(=O)[C@@H]2CCCN2C(=O)[C@@H](NC(=O)OC(C)(C)C)C(C)C)cc1` (mixture of isomers) as the compound, how does the Ratio [1] read?
Its Ratio is < 50 M⁻¹ s⁻¹.

What about the Ratio [2] of the same compound?
Its Ratio is 1700 M⁻¹ s⁻¹.

And the Ratio [3]?
The Ratio was 960 M⁻¹ s⁻¹.

And the Ratio [4]?
The Ratio was 270 M⁻¹ s⁻¹.

With `CCC(NC(=O)[C@@H]1CCCN1C(=O)[C@@H](NC(=O)OC(C)(C)C)C(C)C)P(=O)(Oc1ccccc1)Oc1ccccc1` (mixture of isomers) as the compound, how does the Ratio [1] read?
The Ratio was < 50 M⁻¹ s⁻¹.

What about the Ratio [2] of the same compound?
Its Ratio is < 50 M⁻¹ s⁻¹.

What about the Ratio [3] of the same compound?
The Ratio was 12700 M⁻¹ s⁻¹.

What about the Ratio [4] of the same compound?
Its Ratio is 7100 M⁻¹ s⁻¹.

With `CSc1ccc(OP(=O)(Oc2ccc(SC)cc2)[C@H](NC(=O)[C@@H]2CCCN2C(=O)[C@@H](NC(=O)Cn2ccc(=O)n(CC(=O)O)c2=O)C(C)C)C(C)C)cc1` as the compound, how does the inhibition [1] read?
Its inhibition is < 5%.

What about the Ratio [2] of the same compound?
Its Ratio is < 50 M⁻¹ s⁻¹.

And the Ratio [3]?
The Ratio was 200 M⁻¹ s⁻¹.

And the Ratio [4]?
The Ratio was 2000 M⁻¹ s⁻¹.

For `CSc1ccc(OP(=O)(Oc2ccc(SC)cc2)[C@@H](NC(=O)[C@@H]2CCCN2C(=O)[C@@H](NC(=O)OC(C)(C)C)C(C)C)C(C)C)cc1`, which Ratio [1] is on record?
The Ratio was < 50 M⁻¹ s⁻¹.

What about the Ratio [2] of the same compound?
Its Ratio is 850 M⁻¹ s⁻¹.

What about the Ratio [3] of the same compound?
The Ratio was 22300 M⁻¹ s⁻¹.

What about the Ratio [4] of the same compound?
Its Ratio is 431000 M⁻¹ s⁻¹.
